From the supplement of paper PMC11451515

Tested on: P12-Ichikawa
Experiment: cell viability relative to DMSO control; higher = less cytotoxic
Details: 48 h
Procedure, shortened: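 Viability was expressed as a per-plate percentage of DMSO wells, with cell-free wells as background. Leukemia cells (NOMO1 or SEM at 500 cells/well, P12-Ichikawa at 1000 cells/well) were adapted for at least four passages in each medium and seeded in 1536-well plates (5 μl). Library compounds in DMSO were pin-dosed over an 11-point threefold series from 47 μM to 0.79 nM, and CellTiter-Glo One luminescence was read after 48 h at 37°C.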

[1] = HPLM + 10% dialyzed FBS, 0.000781 µM
[2] = HPLM + 10% dialyzed FBS, 0.00234 µM
[3] = HPLM + 10% dialyzed FBS, 0.00702 µM
[4] = HPLM + 10% dialyzed FBS, 0.0211 µM
[5] = HPLM + 10% dialyzed FBS, 0.0632 µM
[6] = HPLM + 10% dialyzed FBS, 0.19 µM
[7] = HPLM + 10% dialyzed FBS, 0.569 µM
[8] = HPLM + 10% dialyzed FBS, 1.71 µM
[9] = HPLM + 10% dialyzed FBS, 5.12 µM
[10] = HPLM + 10% dialyzed FBS, 15.4 µM
[11] = HPLM + 10% dialyzed FBS, 46.1 µM
[12] = RPMI 5 mM glucose + 10% FBS, 0.000781 µM
[13] = RPMI 5 mM glucose + 10% FBS, 0.00234 µM
[14] = RPMI 5 mM glucose + 10% FBS, 0.00702 µM
[15] = RPMI 5 mM glucose + 10% FBS, 0.0211 µM
[16] = RPMI 5 mM glucose + 10% FBS, 0.0632 µM
[17] = RPMI 5 mM glucose + 10% FBS, 0.19 µM
[18] = RPMI 5 mM glucose + 10% FBS, 0.569 µM
[19] = RPMI 5 mM glucose + 10% FBS, 1.71 µM
[20] = RPMI 5 mM glucose + 10% FBS, 5.12 µM
[21] = RPMI 5 mM glucose + 10% FBS, 15.4 µM
[22] = RPMI 5 mM glucose + 10% FBS, 46.1 µM
[23] = RPMI 5 mM glucose + 10% dialyzed FBS, 0.000781 µM
[24] = RPMI 5 mM glucose + 10% dialyzed FBS, 0.00234 µM
[25] = RPMI 5 mM glucose + 10% dialyzed FBS, 0.00702 µM
[26] = RPMI 5 mM glucose + 10% dialyzed FBS, 0.0211 µM
[27] = RPMI 5 mM glucose + 10% dialyzed FBS, 0.0632 µM
[28] = RPMI 5 mM glucose + 10% dialyzed FBS, 0.19 µM
[29] = RPMI 5 mM glucose + 10% dialyzed FBS, 0.569 µM
[30] = RPMI 5 mM glucose + 10% dialyzed FBS, 1.71 µM
[31] = RPMI 5 mM glucose + 10% dialyzed FBS, 5.12 µM
[32] = RPMI 5 mM glucose + 10% dialyzed FBS, 15.4 µM
[33] = RPMI 5 mM glucose + 10% dialyzed FBS, 46.1 µM

| SMILES | cell viability [1] [%] | cell viability [2] [%] | cell viability [3] [%] | cell viability [4] [%] | cell viability [5] [%] | cell viability [6] [%] | cell viability [7] [%] | cell viability [8] [%] | cell viability [9] [%] | cell viability [10] [%] | cell viability [11] [%] | cell viability [12] [%] | cell viability [13] [%] | cell viability [14] [%] | cell viability [15] [%] | cell viability [16] [%] | cell viability [17] [%] | cell viability [18] [%] | cell viability [19] [%] | cell viability [20] [%] | cell viability [21] [%] | cell viability [22] [%] | cell viability [23] [%] | cell viability [24] [%] | cell viability [25] [%] | cell viability [26] [%] | cell viability [27] [%] | cell viability [28] [%] | cell viability [29] [%] | cell viability [30] [%] | cell viability [31] [%] | cell viability [32] [%] | cell viability [33] [%] |
| --- | --- | --- | --- | --- | --- | --- | --- | --- | --- | --- | --- | --- | --- | --- | --- | --- | --- | --- | --- | --- | --- | --- | --- | --- | --- | --- | --- | --- | --- | --- | --- | --- | --- |
| CC(=O)SC[C@@H](C)C(=O)N1CCC[C@H]1C(=O)N[C@@H](Cc1ccccc1)C(=O)O | 99.5 | 108 | 108 | 104 | 113 | 107 | 106 | 104 | 102 | 101 | 94.1 | 103 | 93.2 | 97.6 | 100 | 102 | 97.8 | 102 | 96.7 | 98.4 | 91.3 | 90 | 99.7 | 101 | 102 | 101 | 99.7 | 100 | 95.4 | 101 | 92.2 | 90.8 | 85.2 |
| CN(C)CCCC1(c2ccc(F)cc2)OCc2cc(C#N)ccc21 (configuration not stated) | 98.8 | 96.8 | 95.5 | 90.1 | 95.1 | 94.8 | 91.8 | 99.9 | 69.7 | 87.7 | 74.7 | 91 | 83.8 | 88.2 | 91.1 | 96.4 | 89.7 | 87.1 | 85.8 | 83.2 | 82.5 | 74.3 | 90.6 | 97.3 | 91.1 | 92.7 | 94.4 | 92.3 | 89.3 | 91.9 | 78.5 | 80.2 | 78.4 |
| C[C@@H]1[C@H]\2[C@H](O)[C@H]3[C@H](N(C)C)\C(=C(C(N)=O)/C(=O)[C@@]3(O)\C(=C2C(=O)C4=C(O)C=CC=C14)O)O | 114 | 122 | 125 | 127 | 129 | 126 | 131 | 129 | 127 | 126 | 113 | – | – | – | – | – | – | – | – | – | – | – | – | – | – | – | – | – | – | – | – | – | – |
| CNc1nc(-c2ccc3c(N)n[nH]c3c2)cc(N2C[C@@H](C(=O)NC3CCCCC3)CC[C@H]2C)n1 | 97.8 | 85.9 | 90.8 | 95.6 | 98.6 | 90.8 | 83.5 | 76.9 | 75.3 | 72.3 | 13.4 | 76.7 | 91.4 | 82.5 | 86.5 | 78.6 | 65.6 | 64 | 57.7 | 54.9 | 51 | 12.8 | 83.5 | 86.6 | 79.9 | 86.5 | 88.4 | 69.9 | 65.5 | 63.5 | 59.8 | 52.1 | 27.8 |
| O=C(O)c1cc(O)c2c(c1)C(=O)c1cccc(O)c1C2=O | 113 | 117 | 123 | 117 | 107 | 117 | 112 | 110 | 107 | 106 | 99.9 | 110 | 120 | 113 | 119 | 119 | 113 | 109 | 120 | 98 | 113 | 102 | 118 | 119 | 113 | 114 | 112 | 112 | 110 | 108 | 99.1 | 108 | 99.7 |
| C[C@@H]1CC[C@@]2(CC[C@]3(C)\C(=C/C[C@@H]4[C@@]5(C)CC[C@H](O)C(C)(C)[C@@H]5CC[C@@]34C)[C@@H]2[C@H]1C)C(O)=O | 112 | 117 | 113 | 109 | 120 | 117 | 109 | 116 | 115 | 125 | 113 | 117 | 112 | 104 | 113 | 118 | 116 | 116 | 116 | 116 | 124 | 115 | 99.7 | 106 | 106 | 112 | 123 | 114 | 115 | 110 | 119 | 109 | 113 |
| C/C1=C2/[N]3[Co+]456([OH])<-[N]7=C1[C@@H](CCC(N)=O)C(C)(C)/C7=C/C1=[N]->4C(=C(/C)C4=[N]->5[C@@](C)([C@H]3[C@H](CC(N)=O)[C@@]2(C)CCC(=O)NC[C@@H](C)OP(=O)([O-])O[C@H]2[C@@H](O)[C@@H](n3c[n]->6c5cc(C)c(C)cc53)O[C@@H]2CO)[C@@](C)(CC(N)=O)[C@@H]4CCC(N)=O)/[C@@](C)(CC(N)=O)[C@@H]1CCC(N)=O | 103 | 97.2 | 95.9 | 99.2 | 99.9 | 97.8 | 92.8 | 93.2 | 76.8 | 77.7 | 71.3 | 97.5 | 88.7 | 97.9 | 98.1 | 95.7 | 88.3 | 98.8 | 93.4 | 85.8 | 85.4 | 69.8 | 82.3 | 85.2 | 86.5 | 77.3 | 83 | 79.9 | 75.7 | 76.7 | 73.9 | 76.9 | 61 |
| NCCCC(N)(C(=O)O)C(F)F (configuration not stated) | 116 | 116 | 113 | 117 | 118 | 110 | 113 | 112 | 108 | 101 | 98.4 | 123 | 125 | 123 | 121 | 114 | 122 | 113 | 113 | 115 | 107 | 109 | 114 | 122 | 113 | 118 | 113 | 109 | 110 | 105 | 105 | 105 | 100 |
| COc1cc(NCc2ccc3nc(N)nc(N)c3c2C)cc(OC)c1OC | 88.8 | 88.8 | 95.8 | 101 | 99 | 94.4 | 79.4 | 62.2 | 32.9 | 24.7 | 14.7 | 82.4 | 91.7 | 86.1 | 91.5 | 96.4 | 88.4 | 96.1 | 87.8 | 68.6 | 58.9 | 1.49 | 73.2 | 82.4 | 82.7 | 87.5 | 96.2 | 87.6 | 88.3 | 85.9 | 65.7 | 26.1 | 1.75 |
| OC(=O)\C1=C\N(C2CC2)C3=CC(=C(F)C=C3C1=O)N4CCNCC4 | 110 | 114 | 114 | 111 | 112 | 112 | 115 | 113 | 96.6 | 91.9 | 68.7 | 102 | 104 | 115 | 108 | 112 | 113 | 115 | 100 | 104 | 92.3 | 63.9 | 99.4 | 106 | 113 | 111 | 112 | 108 | 113 | 114 | 99.4 | 90.5 | 64.7 |
| OC1=CC=C(C=C1)C/2=C/C3=C(OC2)C=C(O)C=C3 | 109 | 91.7 | 111 | 117 | 109 | 116 | 104 | 80.2 | 19.8 | 2.76 | 1.12 | 108 | 121 | 123 | 110 | 126 | 111 | 107 | 88.2 | 24.3 | 1.45 | -0.00081 | 102 | 112 | 111 | 113 | 111 | 106 | 102 | 74.9 | 16.2 | 2.96 | 0.54 |
| CO[C@H]1CCC(O[C@H]2C[C@H]([C@]3(C)CC[C@]4(C[C@H](O)[C@@H](C)[C@@H]([C@@H](C)/C=C(\C)C(=O)[C@H](C)C[C@H](C)C(=O)[O-])O4)O3)O[C@]3(O[C@@H]([C@H]4O[C@@](O)(CO)[C@H](C)C[C@@H]4C)C[C@@H]3C)[C@@H]2C)O[C@@H]1C (some centres not stated) | 120 | 124 | 119 | 118 | 111 | 106 | 87.3 | 80.2 | 48.8 | 35.7 | 21.5 | 124 | 113 | 106 | 113 | 111 | 103 | 99.7 | 73.1 | 44.2 | 28.9 | 22.7 | 118 | 120 | 109 | 119 | 120 | 119 | 108 | 88.8 | 39.7 | 25.3 | 27.1 |
| Oc1ccc(OCc2ccccc2)cc1 | 114 | 114 | 119 | 105 | 119 | 102 | 115 | 103 | 90.1 | 69.9 | 65.3 | 114 | 116 | 111 | 127 | 106 | 114 | 109 | 93.7 | 83.4 | 68.4 | 64.8 | 105 | 115 | 114 | 117 | 106 | 115 | 107 | 86.5 | 75.2 | 52.4 | 44.6 |
| COc1ccc(CCC(=O)c2c(O)cc(O[C@@H]3O[C@H](CO)[C@@H](O)[C@H](O)[C@H]3O[C@@H]3O[C@@H](C)[C@H](O)[C@@H](O)[C@H]3O)cc2O)cc1O | 115 | 117 | 116 | 110 | 119 | 116 | 117 | 113 | 107 | 107 | 38.8 | – | – | – | – | – | – | – | – | – | – | – | 105 | 115 | 118 | 116 | 108 | 114 | 111 | 113 | 107 | 106 | 105 |
| NC1=NC(=O)N2CC12 (configuration not stated) | 91 | 103 | 101 | 107 | 103 | 97 | 103 | 99.7 | 83.1 | 3.88 | 2.17 | 92.5 | 91.2 | 96.2 | 102 | 106 | 97.4 | 104 | 67.8 | 59 | 2.82 | 0.916 | 85.3 | 94.6 | 92.1 | 90.9 | 87.4 | 88.5 | 95.6 | 73.5 | 59.9 | 6.25 | 2.73 |
